In patent publication US20080155704A1, “Methods and Compositions for Determining in vivo Activity of BiP” (King's College London, priority 2006, published 2008):

Legend:
Type in all cases: cell-based, human
T cells = test: Direct effect of BiP on T cells / PBMC: marker expression
Protocol: CCR4 and CCR5 expression by T cells.
(§1) Immunofluorescent staining was performed as follows when required. Cells were suspended in immunofluorescent buffer (IF) (PBS/0.1% BSA/0.05% azide) washed and incubated for 10 mins on ice with normal human serum. After washing twice in IF buffer, saturating concentrations of fluorescein isothiocyanate (FITC)-, phycoerythrin (PE) or peridium chlorophyll (Per-CP)-conjugated monoclonal antibodies (mAb) recognizing human CD14, CD86, CD80, HLA-DR, CD11c, CD1a, CD83, CD40 and CD85j, (all from Becton Dickinson/PharMingen, Oxford, UK) were added singly or in combination, as stated in the text, to cells for 20 mins on ice. Cells were then washed twice in IF buffer and analysed. Isotype controls, IgG1 and IgG2a (Becton Dickinson, Oxford, UK) were used in parallel.
Another group of regulatory T cells recently described are characterised by the expression of CD8CD122.

IL-8 = IL-8 production by dendritic cells (cytometric bead array); conditions: iDC and mDC, BiP 20 μg/ml, 7d culture (FIG. 7)
Source text: In a series of experiments IL-8 was detected using cytometric bead array (Becton Dickinson) where the mean fluorescence intensity (MFI) is proportional to the concentration of cytokine.

[1] = system: monocyte-derived dendritic cells; test: Surface expression of phenotypic markers on monocyte-derived dendritic cells (immunofluorescence, flow cytometry)
Protocol: Purified monocytes (>85% monocytes)(1.5.10^6/flask)(Corning Costar, High Wycombe, UK) were incubated in 5 ml of tissue culture medium (TCM)(RPMI 1640 medium (Sigma, Poole, UK) supplemented with 10% heat-inactivated foetal calf serum (FCS)(Life Technologies, Paisley, UK). iDC were generated using granulocyte macrophage—colony stimulating factor (GM-CSF) (1000 U/ml)(Novartis Research Institute, Vienna, Austria) and IL-4 (500 U/ml) (R&D Systems, Oxford, UK). Monocytes were cultured for 3 or 7 days with cytokines, either alone or in the presence of rhuBiP (20 μg/ml). Mature DC were generated by addition of 500 ng/ml lipopolysaccharide (LPS) for the final 2 days of culture.
as §1
Purified monocytes were cultured with and without BiP for three days (early DC/early DC(BiP)) or 7 days with GM-CSF and IL-4 (iDC/iDC(BiP)) or for 7 days with additional LPS for the final 2 days (mDC/mDC(BiP)). *BiP [20 μg/ml] was added at the same time as the cytokines. (a) and (b): Results are expressed as mean and standard error (mean ±SE) of the % positive cells from 4 or 7 different experiments, respectively.
Table A: Surface expression of phenotypic markers: Purified monocytes were differentiated into immature dendritic cells (iDC) with GM-CSF and IL-4 for 7d in the presence or absence of BiP (20 μg/ml). LPS (500 ng/ml) was added for the final 2d to give mature DC(mDC). Cell surface expression of molecules was measured by immunofluorescence and flow cytometry. Results are expressed as mean and standard deviation (mean ±SD) of the mean fluorescent intensity (MFI) from 7 different experiments:
Purified MO (>85% monocytes)(1.5.106/flask)(Corning Costar, High Wycombe, UK) were incubated in 5 ml of tissue culture medium (TCM)(RPMI 1640 medium (Sigma, Poole, UK) supplemented with 10% heat-inactivated foetal calf serum (FCS)(Life Technologies, Paisley, UK). iDC were generated by culturing MO with granulocyte macrophage-colony stimulating factor (GM-CSF) (1000 U/ml)(Novartis Research Institute, Vienna, Austria) and IL-4 (500 U/ml) (R&D Systems, Oxford, UK) for 3 or 7d, either alone or in the presence of rhuBiP (20 μg/ml). Cytokines and BiP were replenished every 2d. Mature DC were generated by addition of LPS (500 ng/ml) for the final 2d of a 7d culture.
Immunofluorescent staining was performed, as described previously (39), on DC harvested at day 7, T cells after 4 days co-culture with DC. Saturating concentrations of fluorescein isothiocyanate (FITC)-, phycoerythrin (PE) or peridium chlorophyll (Per-CP)-conjugated mAb were added recognizing CD14, CD86, CD80, HLA-DR, CD11c, CD1a, CD83, CD85j, IL-10 receptor; purity of the negatively selected MO and T cells was checked using CD3, CD4, CD14, CD20 and CD57 (all from Becton Dickinson/PharMingen (BD), Oxford, UK). Intracellular staining was carried out following fixation of cells with 1% paraformaldehyde for 5 minutes. Cells were then washed with immunofluorescence buffer (PBS/0.1% BSA/0.05% azide) containing 0.3% saponin. 0.3% saponin was then present in all solutions thereafter. CD152/CTLA-4 (BD, Oxford UK) and IDO (Santa Cruz, Autogen Bioclear, UK) were intracellular stains. Isotype controls, IgG1 and IgG2a (BD, Oxford, UK) were used in parallel. […]

[2] = Early iDC(BiP): 3 days GM-CSF and IL-4, BiP 20 μg/ml, mean ±SE
[3] = iDC(BiP): 7 days GM-CSF and IL-4, BiP 20 μg/ml, mean ±SE
[4] = mDC(BiP), BiP 20 μg/ml, mean fluorescence intensity, up to 7 experiments
[5] = mDC(BiP): 7 days GM-CSF and IL-4, LPS final 2 days, BiP 20 μg/ml, mean ±SE

For “BiP: 78 kD endoplasmic reticulum chaperone protein as disclosed in WO 00/21995; recombinant human protein”, which “CCR5 expression by T cells” value (T cells; PBMC incubated with BiP for four days (FIG. 4)) is on record?
The value was “slightly downregulated”.

What about the “CCR4 expression by T cells” value (T cells; PBMC incubated with BiP for four days, three experiments (FIG. 4)) of the same substance?
Its value is “significantly raised”.

What about the CD8CD122 expression (T cells; T cells after 7 days incubation with BiP, n=3) of the same substance?
The CD8CD122 expression was 75.6%±23.5%.

What about the “IL-8 production (MFI) in culture supernatants” value (IL-8) of the same substance?
Its value is “suppressed IL-8 production”.

And the “% cells CD1a+” value [1, 2]?
Its value is 1 ± 2%.

And the “% cells CD11c+” value [1, 2]?
Its value is 81 ± 7%.

And the “% cells CD80+” value [1, 2]?
The value was 36 ± 15%.

And the “% cells CD83” value [1, 2]?
The value was 2. ± 2%.

What about the “% cells CD86+” value [1, 2] of the same substance?
Its value is 3 ± 1%.

What about the “% cells HLA-DR” value [1, 2] of the same substance?
Its value is 31 ± 7%.

What about the “% cells CD14” value ([1]; Early iDC(BiP): monocytes 3 days with GM-CSF and IL-4, BiP 20 μg/ml, mean ±SE) of the same substance?
The value was 91 ± 6%.

What about the “MFI CD11c” value ([1]; iDC(BiP), BiP 20 μg/ml, mean fluorescence intensity, up to 7 experiments) of the same substance?
The value was 2246 ± 329.

And the “% positive cells CD40+85j+” value ([1]; iDC(BiP): 7 days GM-CSF and IL-4, BiP 20 μg/ml)?
The value was 26±19%.

What about the “% positive cells CD1a+” value [1, 3] of the same substance?
The value was 83 ± 9%.

And the “% positive cells CD11c+” value [1, 3]?
Its value is 97 ± 2%.

What about the “% positive cells CD14+” value [1, 3] of the same substance?
Its value is 59 ± 22%.

And the “% positive cells CD40+” value [1, 3]?
The value was 28 ± 20%.

And the “% positive cells CD80+” value [1, 3]?
Its value is 88 ± 7%.

What about the “% positive cells CD83+” value [1, 3] of the same substance?
The value was 10 ± 5%.

What about the “% positive cells CD86+” value [1, 3] of the same substance?
Its value is 31 ± 11%.

And the “% positive cells CD210+” value [1, 3]?
Its value is 12 ± 9%.

And the “% positive cells HLA-DR+” value [1, 3]?
The value was 96 ± 2%.

And the “maturation as determined by upregulation of CD83 after addition of LPS” value ([1]; mDC(BiP) (FIG. 10C))?
The value was “failed to mature”.

And the “CD40 expression by mDC(BiP)” value ([1]; mDC(BiP) versus mDC)?
The value was “no difference in CD40 expression”.

What about the “MFI CD1a” value [1, 4] of the same substance?
The value was 685 ± 145.

What about the “MFI CD14” value [1, 4] of the same substance?
The value was 366 ± 216.

And the “MFI CD80” value [1, 4]?
Its value is 395 ± 31.

What about the “MFI CD86” value [1, 4] of the same substance?
Its value is 112 ± 14.

What about the “MFI HLA-DR” value [1, 4] of the same substance?
Its value is 1660 ± 167.

What about the “cell surface expression of CD85j (ILT2)” value ([1]; mDC(BiP), n=4) of the same substance?
Its value is 87.2±3.5%.

And the “% positive cells CD1a+” value [1, 5]?
Its value is 76 ± 14%.

And the “% positive cells CD11c+” value [1, 5]?
The value was 94 ± 5%.

And the “% positive cells CD14+” value [1, 5]?
Its value is 57 ± 22%.

What about the “% positive cells CD40+” value [1, 5] of the same substance?
Its value is 32 ± 24%.

What about the “% positive cells CD40+85j+” value [1, 5] of the same substance?
Its value is 29 ± 23%.

What about the “% positive cells CD80+” value [1, 5] of the same substance?
The value was 91 ± 6%.

And the “% positive cells CD83+” value [1, 5]?
Its value is 10 ± 4%.

What about the “% positive cells CD86+” value [1, 5] of the same substance?
The value was 26 ± 9%.

What about the “% positive cells CD210+” value [1, 5] of the same substance?
The value was 19 ± 17%.

And the “% positive cells HLA-DR+” value [1, 5]?
Its value is 96 ± 1%.

What about the “CD14 and CD86 expression on DC cultured in the presence of BiP” value ([1]; mature DC, dose-dependent 0.5-20 μg/ml BiP (FIG. 10B)) of the same substance?
Its value is “sustained CD14 expression and failed to upregulate CD86”.
